Experimental data: patent US10947273B2, “Peptides of use in the preventive and curative treatment of alopecia” (Institut Europeen de Biologie Cellulaire, priority 2015, dated 2021)
The star is where a group is joined. Palmitoyl = CCCCCCCCCCCCCCCC(=O)*

How the values were obtained:
Assay type in all cases: cell-based, human
KGF = assay: qPCR (TLDA) KGF gene expression in HFDPC; parameters: dose or concentration left out as unconfirmed; settings: peptide, 24 hours, relative to untreated controls
Description: (§1) RNA was extracted and purified from cell pellets using the RNA XS Kit (Macherey-Nagel). RNA quantification was carried out with a NanoDrop device and sample quality was verified on a Bioanalyzer with RNA 6000 Nano chips (Agilent). cDNA was synthesized from 300 ng of RNA using the High-Capacity cDNA Reverse Transcription Kit (LifeTech). Quality-control qPCR assays of the cDNA were carried out in microplates on the reference gene, GAPDH, and the SIRT1 gene.
(§2) Final qPCR experiments were carried out in a 1 μl volume on microfluidic cards (TaqMan Low Density Arrays, LifeTech) and the ABI 7900HT qPCR device. Amplification reactions were performed in duplicate using 1 to 2 ng of cDNA per qPCR reaction and TaqMan Universal Master Mix II (LifeTech).
(§3) Ct values were obtained using the RQ Manager software. For analyses of qPCR results, Ct values were limited to 35 cycles and the duplicate assays are averaged. The GeneXPro software was used for the studies of stability and of selection of the best reference genes. Expression variations are calculated by the relative quantification method and are expressed as percent increase in expression of the gene of interest relative to the untreated controls.

HGF [1] = assay: HGF secretion by NHDF (ELISA/BioPlex); settings: 48h
Description: (§4) NHDF, HFDPC, HHFK and NHEM cells were treated with the peptides studied for 48h. At the end of the treatment, cell supernatants were collected and stored at −80° C. until analysis. The factors of interest secreted into the supernatant were assayed by ELISA® (R&D) or BioPlex® (BioRad®).
(§5) The results are expressed as percent increase in the concentration of the factor present in the supernatant relative to the untreated control. The intensity of the effect varies as a function of the concentration of the peptide studied and of the cell type treated.

PDGF [2] = assay: qPCR (TLDA) PDGF gene expression in HFDPC; parameters: dose or concentration left out as unconfirmed; settings: peptide, 24 hours, relative to untreated controls
Description: as §1, §2, §3

HGF [3] = assay: HGF secretion by HHFK (ELISA/BioPlex); settings: 10^−7 M, 48h
Description: as §4, §5

SCF [4] = assay: SCF secretion by NHDF (ELISA/BioPlex); settings: 48h
Description: as §4, §5

HGF [5] = assay: HGF secretion by HFDPC (ELISA/BioPlex); settings: 48h
Description: as §4, §5

VEGF [6] = assay: qPCR (TLDA) VEGF gene expression in HFDPC; settings: peptide 10^−5 M (table title), 24 hours, relative to untreated controls
Description: as §1, §2, §3

[7] = system: genes whose expression is reduced in subjects characterized by alopecia; assay: qPCR (TLDA) overall statement, genes involved in alopecia, HFDPC; settings: summary of Table 1
Description: (§6) To study the effect of 9 peptides on these genes, HFDPC were treated for 24 hours with the molecules tested at 10^−7M and 10^−9M concentrations.
as §1, §2, §3

IGF1 = assay: qPCR (TLDA) IGF1 gene expression in HFDPC; settings: peptide 10^−9, 24 hours, relative to untreated controls
Description: as §6, §1, §2, §3

VEGF [8] = assay: VEGF secretion by NHDF (ELISA/BioPlex); settings: 48h
Description: as §4, §5

follicular markers = assay: Follicular markers in isolated hair ex vivo (immunolabeling); settings: end of treatment D11 or D12, value = marker increased
Description: (§7) This study was carried out on microdissected hairs from scalp surgery specimens from women aged 52 to 71 years. Isolated hairs were kept alive for 11 to 12 days in Williams medium, under conventional cell culture conditions (37° C., 5% CO2). […]
(§8) To evaluate the effect of (1), (6) or (9) on hair growth, the hairs were photographed and their lengths measured using image analysis software. Thus, the growth of the hairs between D0 and D11/D12 could be calculated and compared with that of the untreated control. At the end of the treatments (D11 or D12), the hairs were collected and frozen or fixed for immunolabeling and histological staining.

SCF [9] = assay: SCF secretion by HHFK (ELISA/BioPlex); settings: 10^−7 M, 48h
Description: as §4, §5

VEGF [10] = assay: VEGF secretion by HFDPC (ELISA/BioPlex); settings: 10^−5 M, 48h
Description: as §4, §5

PDGF [11] = assay: PDGF secretion by HFDPC (ELISA/BioPlex); settings: 48h
Description: as §4, §5

[12] = system: microdissected hairs from scalp surgery specimens; assay: Growth of isolated hair ex vivo; settings: ex vivo isolated hair
Description: as §7, §8

NGF = NGF secretion by NHDF (ELISA/BioPlex); settings: 48h
Description: as §4, §5

Substance | % stimulation KGF gene expression (KGF) | HGF secretion, percent increase relative to untreated control (HGF [1]; 10^−7 M) | % stimulation PDGF gene expression (PDGF [2]) | HGF secretion, percent increase relative to untreated control (HGF [3]) | SCF secretion, percent increase relative to untreated control (SCF [4]; 10^−7 M) | HGF secretion, percent increase relative to untreated control (HGF [5]; 10^−5 M) | HGF secretion, percent increase relative to untreated control (HGF [5]; 10^−7 M) | % stimulation VEGF gene expression (VEGF [6]) | stimulation of genes whose expression is reduced in alopecia (in words) [7] | PDGF secretion, percent increase relative to untreated control (PDGF [11]; 10^−7 M) | further results
Palm-Ala-Arg-Pro-Ala-Lys-OH (Palmitoyl-ARPAK-OH; SMILES CCCCCCCCCCCCCCCC(=O)N[C@@H](C)C(=O)N[C@@H](CCCNC(=N)N)C(=O)N1CCC[C@H]1C(=O)N[C@@H](C)C(=O)N[C@@H](CCCCN)C(=O)O) [(2)] | 71% | HGF 13% | 29% | HGF 28% | SCF 37% | HGF 403% | HGF 565% | 11% | stimulate several genes | – | SCF secretion, percent increase relative to untreated control (SCF [4]; 10^−5 M): SCF 24%; % stimulation IGF1 gene expression (IGF1): 136% (10^−9)
H-Arg-Pro-Ala-Lys-OH (H-RPAK-OH) [(8)] | 14% | – | – | – | – | HGF 26% | HGF 129% | – | – | – | HGF secretion, percent increase relative to untreated control (HGF [1]; 10^−5 M): HGF 8%
Palm-Arg-Pro-Ala-Lys-OH (Palmitoyl-RPAK-OH; SMILES CCCCCCCCCCCCCCCC(=O)N[C@@H](CCCNC(=N)N)C(=O)N1CCC[C@H]1C(=O)N[C@@H](C)C(=O)N[C@@H](CCCCN)C(=O)O) [Peptide (9)] | 156% | – | 304% | HGF 94% | SCF 8% | – | – | 93% | stimulate several genes | PDGF 117% | VEGF secretion, percent increase relative to untreated control (VEGF [8]; 10^−5 M): VEGF 24%; Follicular markers increased Vs Control (follicular markers; 10^−7 M): CK15; Follicular markers increased Vs Control (follicular markers; 10^−9 M): CK15; SCF secretion, percent increase relative to untreated control (SCF [9]): SCF 11%; VEGF secretion, percent increase relative to untreated control (VEGF [10]): VEGF 10%; PDGF secretion, percent increase relative to untreated control (PDGF [11]; 10^−5 M): PDGF 62%; Growth at D 11/D 12 Vs Control ([12]; 10^−7 M): No effect; Growth at D 11/D 12 Vs Control ([12]; 10^−9 M): +5%
Palm-Ala-Arg-Pro-Ala-Ala-NH2 (Palmitoyl-ARPAA-NH2; SMILES CCCCCCCCCCCCCCCC(=O)N[C@@H](C)C(=O)N[C@@H](CCCNC(=N)N)C(=O)N1CCC[C@H]1C(=O)N[C@@H](C)C(=O)N[C@@H](C)C(N)=O) [(4)] | – | HGF 188% | – | – | SCF 6% | – | – | – | – | PDGF 8% | VEGF secretion, percent increase relative to untreated control (VEGF [8]; 10^−7 M): VEGF 9%; HGF secretion, percent increase relative to untreated control (HGF [1]; 10^−9 M): HGF 95%; NGF secretion, percent increase relative to untreated control (NGF; 10^−7 M): NGF 12%; NGF secretion, percent increase relative to untreated control (NGF; 10^−9 M): NGF 18%; SCF secretion, percent increase relative to untreated control (SCF [4]; 10^−9 M): SCF 8%
